{"source": "patent US20060257400A1", "about": "“COMBINATION THERAPY” (Bristol-Myers Squibb Company, priority 2005, published 2006)", "tested_on": "Human L2987 lung carcinomas", "test": "Antitumor testing, s.c. L2987 xenografts in nude mice", "format": "in vivo", "settings": "athymic nude mice, s.c. L2987 tumors established at 100-200 mm^3; Compound I 100 mg/Kg daily; Erbitux 1 mg per mouse every three days, 5 doses; combination given essentially simultaneously", "experimental": "Animals. […] They were fed food and water ad libitum. All studies involving these animals were conducted in accordance with NIH (Bethesda, Md.) and Bristol Myers-Squibb animal care and use guidelines.\nTumors. […] All efficacy testing involved tumors implanted s.c. in nude mice.", "data": [{"molecule": "Cc1cc2c(F)c(Oc3ncnn4cc(OC[C@@H](C)OC(=O)[C@H](C)N)c(C)c34)ccc2[nH]1", "note": "[Compound I]", "values": [{"measurement": "delay of tumor growth to target tumor size of 500 mm^3 compared to vehicle treated control group", "value": "ten"}]}]}
